Columns and labels:
[1] = tested on: G. lamblia (WB/C6, GS/M, 106, and 713); assay: Antigiardial growth inhibition; type: cell-based, Giardia lamblia; conditions: IC50 in HeLa cells / EC50 in Giardia
[2] = tested on: HeLa cells; assay: Cytotoxicity assay; type: cell-based, human; conditions: Homo sapiens, HeLa, 48 h, read-out: toxicity in HeLa cells, pIC50 (mean ± SE) (converted)
[3] = tested on: G. lamblia GS/M; assay: Murine G. lamblia infection model; type: in vivo, Giardia lamblia in C57BL/6 mice; conditions: mice, five doses over 3 days; for effect on infection (trophozoites in small intestine) at 10 mg/kg: 10 mg/kg oral gavage; for effect on infection (trophozoites in small intestine) at 2 mg/kg: 2 mg/kg oral gavage
[4] = Cyclic voltammetry in DMSO; type: physicochemical; conditions: for E1/2 in DMSO (half-wave potential, 0/−1 reduction), mean ± SE: cyclic voltammetry, 0.10 M NBu4PF6 in DMSO, 25 °C, 100 mV/s; for E1/2 more positive than Mz: in DMSO, relative to Mz
[5] = Cyclic voltammetry in water pH 7.0; type: physicochemical; conditions: pH 7.0 phosphate buffer, 0.1 M KCl, 25 °C

Compound | selectivity ratio, IC50/EC50 [1] | IC50 [2] | effect on infection (trophozoites in small intestine) at 10 mg/kg [3] | E1/2 in DMSO (half-wave potential, 0/−1 reduction), mean ± SE [4] | E1/2 more positive than Mz [4] | effect on infection (trophozoites in small intestine) at 2 mg/kg [3] | Ep in water (peak potential), mean ± SE [5]
Cn1c([N+](=O)[O-])cnc1/C=C/c1ccco1 [compound 29, 2-[(E)-2-(2-Furyl)vinyl]-1-methyl-5-nitro-1H-imidazole] | 2,754 | 93.3 µM | complete clearance of the infection | −1.504 ± 0.003 V vs Fc | 50–65 mV | – | –
Cn1ccnc1/C=C/c1ncc([N+](=O)[O-])n1C [compound 28, 1-Methyl-2-[(E)-2-(1-methyl-1H-imidazol-2-yl)vinyl]-5-nitro-1H-imidazole] | 1,202 | – | complete clearance of the infection | −1.497 ± 0.001 V vs Fc | 50–65 mV | significant activity | −0.594 ± 0.014 V vs SCE
Cn1c([N+](=O)[O-])cnc1/C=C/c1ccc(Br)cc1 [compound 12, 2-[(E)-2-(4-Bromophenyl)vinyl]-1-methyl-5-nitro-1H-imidazole] | – | – | no significant activity | −1.506 ± 0.002 V vs Fc | – | no significant activity | −0.605 ± 0.007 V vs SCE

— article PMC2766634 (Journal of medicinal chemistry, 2009)
